Here are results for 25 molecules from patent US20220380371A1, “MLL1 INHIBITORS AND ANTI-CANCER AGENTS” (NOVARTIS AG, priority 2019, published 2022).

Assay [1] deals with wild type MLL1 five-member complex (MLL1-5C) (Homo sapiens, UniProt Q03164). Kind of assay: MLL1 Flashplate Assay. As to conditions: read-out: MLL1 flash plate. The assay is classed as biochemical. On the procedure: MLL1 Flashplate Assay To assess the compound potency in MLL1 Flashplate assay, compounds were serially diluted 3-fold in DMSO to obtain a total of twelve concentrations. Then the test compounds at each concentration (250 nL of each) were transferred by Mosquito into Corning #3675 384-well plate. Solutions (15 μL) of 4.2 nM wild type MLL1 five-member complex (MLL1-5C) in the assay buffer (20 mM Tris-HCl, pH 8.0, 0.01% Tween 20, 1 mM DTT, 0.01% BSA) were added to the wells. A 10 μL solution of 2.5 μM of the peptide substrate H3K4me0 (histone H3[1-21]-Biotin) and 1.25 μM ^3H-SAM in the reaction buffer was then added to initiate each reaction. The final components in the reaction solution include 2.5 nM MLL1-5C, 0.5 μM ^3H-SAM, and 1 μM H3K4me0 with varying concentration of the compounds. A positive control consisted of 2.5 nM MLL1-5C, 0.5 μM ^3H-SAM, and 1 μM substrate in the absence of the test compound, and a negative control consisted of 0.5 μM ^3H-SAM, and 1 μM substrate only. Each reaction was incubated at rt for 90 min, then stopped by addition of 5 μL per of quench solution (0.5 mM SAM in assay buffer). 25 μL of each reaction solution was transferred to FlashPlate streptavidin 384-well microplate (PerkinElmer). After at least 1 h incubation at rt, the wells were washed three times with 0.1% Tween-20 in dH2O using the BioTek plate washer. The plates were then read in MicroBeta (PerkinElmer). The radioactive readouts were then normalized based on the values coming from the positive and negative controls to give percent enzyme activities. The data were then fit to a dose response equation using the program Helios to get the IC50 values of the test compounds.

For assay [2], the target named is wild type MLL1 four-member complex (MLL1-4C) (Homo sapiens, UniProt Q03164). In words: MLL1 LC-MS Assay. The assay is classed as biochemical. As to conditions: read-out: LCMS. In a few lines: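 Compound pre-incubated 20 min with MLL1-4C and SAM, then H3[1-21]-biotin (H3K4me0) substrate added; final 30 nM enzyme, 2.5 μM SAM, 10 μM peptide in Tris pH 8.0 with MgCl2, DTT, Tween 20, BSA. After 120 min at rt, TFA-quenched SAH quantified by LC-MS/MS with d4-SAH; IC50 from dose-response fit.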

In assay [3] the test system is H3K4me3 in MV4-11 cells. In words: MV4-11 H3K4me3 Cellular ELISA Assay. To be noted: Homo sapiens, MV4-11, 48 h. The assay is classed as cell-based. In outline: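 MV4-11 cells were treated for 48 h with 12-point 1:3 compound dilutions (from 10 mM stock), then histones were acid-extracted with 0.5M HCl and neutralized. H3K4me3 and total H3 were measured by HRP chemiluminescent ELISA, and inhibition versus DMSO after H3 normalization was curve-fitted for IC50.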
Background: ELISA stands for enzyme-linked immunosorbent assay.

Assay [4] relates to MV4-11 cells. Kind of assay: MV4-11 6-Day Cell Growth CTG (CellTiter-Glo) Assay. In kind it is cell-based. As to conditions: Homo sapiens, MV4-11, 144 h, MV4-11 cell growth CellTiter-Glo, 6 days. In outline: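 MV4-11 AML cells (RPMI 1640, 10% FBS) seeded at 300 cells/well and exposed for 6 days at 37 °C to a 12-point, 1:3 compound series starting at 50 μM final. Viable cells read by CellTiter-Glo luminescence; percent inhibition versus DMSO-only wells fitted to dose-response curves for IC50.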
(In general: Cellular ATP, detected with luciferase, serves as a proxy for viable cell number.)

Molecules are shown by their SMILES. Some results are limits rather than exact numbers.

In the case of `CN(C)Cc1c(F)ccc(N2CC[C@](N)(C(=O)NC3CC3)C2)c1Cn1cnc2c(N)ncnc21` [Example 45, (R)-3-amino-1-(2-((6-amino-9H-purin-9-yl)methyl)-3-((dimethylamino)methyl)-4-fluorophenyl)-N-cyclopropylpyrrolidine-3-carboxamide], the IC50 is above 100 nM in assay [1], 50 to 100 nM in assay [2], below 1900 nM in assay [3] and below 2000 nM in assay [4].
The like results for `Nc1ncnc2c1ncn2Cc1c(N2CC[C@](N)(C(=O)N[C@H]3C[C@@H]3c3ccccc3)C2)ccc(F)c1CN1CCOCC1` [Example 51] were, in that order, below 60 nM, below 50 nM, below 1900 nM and below 2000 nM.
`Nc1ncnc2c1ncn2Cc1c(N2CC[C@](N)(C(=O)NC3CC3)C2)ccc(F)c1CN1CC(F)(F)C1` [Example 52]: the IC50 is 60 to 100 nM in assay [1], 50 to 100 nM in assay [2], below 1900 nM in assay [3] and below 2000 nM in assay [4].
In the case of `Nc1ncnc2c1ncn2Cc1c(N2CC[C@](N)(C(=O)NC3CC3)C2)ccc(C(F)(F)F)c1CN1CCC1` [Example 62], the IC50 was below 60 nM in assay [1], below 50 nM in assay [2], below 1900 nM in assay [3] and below 2000 nM in assay [4].
`Nc1ncnc2c1ncn2Cc1c(N2CC[C@](N)(C(=O)NC3CC3)C2)ccc(F)c1CN1CCOCC1` [Example 65]: the IC50 in assay [1] is above 100 nM; in assay [2], below 50 nM; in assay [3] it was below 1900 nM; in assay [4] it was below 2000 nM.
The like results for `Nc1ncnc2c1ncn2Cc1c(N2CC[C@](N)(C(=O)NC3CC3)C2)ccc(F)c1CN1CCC1` [Example 70] were, in that order, above 100 nM, 50 to 100 nM, below 1900 nM and below 2000 nM.
Consider `Nc1ncnc2c1ncn2Cc1c(-c2cccc(C3CCCCC3)c2)cc(Cl)cc1N1CC[C@](N)(c2nn[nH]n2)C1` [Example 84], for which the IC50 in assay [1] was below 60 nM; in assay [2] it was 50 to 100 nM; in assay [3], below 1900 nM; in assay [4], below 2000 nM.
The like results for `Nc1ncnc2c1ncn2Cc1c(N2CC[C@](N)(c3nc[nH]n3)C2)ccc(Cl)c1Cl` [Example 85] were, in that order, below 60 nM, below 50 nM, below 1900 nM and below 2000 nM.
With `Nc1ncnc2c1ncn2Cc1c(N2CC[C@](N)(C(=O)NC3CC3)C2)ccc(Cl)c1COC(F)F` [Example 86], the IC50 in assay [1] was below 60 nM; in assay [2] it was below 50 nM; in assay [3], below 1900 nM; in assay [4], below 2000 nM.
With `CN(C)Cc1c(Cl)c(Cl)cc(N2CC[C@](N)(C(=O)NC3CC3)C2)c1Cn1cnc2c(N)ncnc21` [Example 88, (R)-3-amino-1-(2-((6-amino-9H-purin-9-yl)methyl)-4,5-dichloro-3-((dimethylamino)methyl)phenyl)-N-cyclopropylpyrrolidine-3-carboxamide], the IC50 in assay [1] was below 60 nM; in assay [2], below 50 nM; in assay [3] it was below 1900 nM; in assay [4] it was below 2000 nM.
Regarding `CCc1cc(-c2cccs2)cc(N2CC[C@](N)(C(=O)NC3CC3)C2)c1Cn1cnc2c(N)ncnc21` [Example 93], the IC50 was below 60 nM in assay [1], below 50 nM in assay [2], below 1900 nM in assay [3] and below 2000 nM in assay [4].
For the molecule `CCc1cc(-c2cnn(C)c2)cc(N2CC[C@](N)(C(=O)NC3CC3)C2)c1Cn1cnc2c(N)ncnc21` [Example 96], the IC50 is below 60 nM in assay [1], below 50 nM in assay [2], 1900 to 3000 nM in assay [3] and above 3000 nM in assay [4].
For `CCc1cc(-c2ccccn2)cc(N2CC[C@](N)(C(=O)NC3CC3)C2)c1Cn1cnc2c(N)ncnc21` [Example 99, (R)-3-amino-1-(2-((6-amino-9H-purin-9-yl)methyl)-3-ethyl-5-(pyridin-2-yl)phenyl)-N-cyclopropylpyrrolidine-3-carboxamide], the IC50 was below 60 nM in assay [1], below 50 nM in assay [2], below 1900 nM in assay [3] and below 2000 nM in assay [4].
With `CCc1c(C#N)c(Cl)cc(N2CC[C@](N)(C(=O)NC3CC3)C2)c1Cn1cnc2c(N)ncnc21` [Example 101, (R)-3-amino-1-(2-((6-amino-9H-purin-9-yl)methyl)-5-chloro-4-cyano-3-ethylphenyl)-N-cyclopropylpyrrolidine-3-carboxamide], the IC50 in assay [1] is below 60 nM; in assay [2] it was below 50 nM; in assay [3] it was below 1900 nM; in assay [4], 2000 to 3000 nM.
Consider `Nc1ncnc2c1ncn2Cc1c(N2CC[C@](N)(C(=O)NC3CC3)C2)cc(Cl)c(F)c1CN1CCOCC1` [Example 102, (R)-3-amino-1-(2-((6-amino-9H-purin-9-yl)methyl)-5-chloro-4-fluoro-3-(morpholinomethyl)phenyl)-N-cyclopropylpyrrolidine-3-carboxamide], for which the IC50 is below 60 nM in assay [1], below 50 nM in assay [2], below 1900 nM in assay [3] and below 2000 nM in assay [4].
For `Nc1ncnc2c1ncn2Cc1c(N2CC[C@@](N)(CO)C2)ccc2ccccc12` [Example 106], in that order: below 60 nM, below 50 nM, below 1900 nM and below 2000 nM.
The like results for `Nc1ncnc2c1ncn2Cc1c(Br)c(Cl)c2c(c1N1CC[C@](N)(C(=O)NC3CC3)C1)OCC2` [Example 110] were, in that order, below 60 nM, below 50 nM, below 1900 nM and below 2000 nM.
The like results for `Nc1ncnc2c1ncn2Cc1c(N2CC[C@](N)(C(=O)NC3CC3)C2)ccc2ccoc12` [Example 112] were, in that order, below 60 nM, 50 to 100 nM, below 1900 nM and below 2000 nM.
With `Nc1ncnc2c1ncn2Cc1c(N2CC[C@](N)(C(=O)NC3CC3)C2)ccc(F)c1C(F)(F)F` [Example 116, (R)-3-amino-1-(2-((6-amino-9H-purin-9-yl)methyl)-4-fluoro-3-(trifluoromethyl)phenyl)-N-cyclopropylpyrrolidine-3-carboxamide], the IC50 in assay [1] is below 60 nM; in assay [2] it was below 50 nM; in assay [3], below 1900 nM; in assay [4] it was below 2000 nM.
For `CS[C@H]1C[C@H](NC(=O)[C@@]2(N)CCN(c3ccc(F)c(C(F)(F)F)c3Cn3cnc4c(N)ncnc43)C2)C1` [Example 117], in that order: below 60 nM, below 50 nM, below 1900 nM and below 2000 nM.
In the case of `Nc1ncnc2c1ncn2Cc1c(N2CC[C@](N)(C(=O)NCc3cccnn3)C2)ccc(F)c1C(F)(F)F` [Example 118], the IC50 in assay [1] was below 60 nM; in assay [2] it was 50 to 100 nM; in assay [3], below 1900 nM; in assay [4], below 2000 nM.
The like results for `N#CCC1CCN(C(=O)[C@@]2(N)CCN(c3ccc(F)c(C(F)(F)F)c3Cn3cnc4c(N)ncnc43)C2)CC1` [Example 119] were, in that order, below 60 nM, 50 to 100 nM, below 1900 nM and below 2000 nM.
For `Nc1ncnc2c1ncn2Cc1c(N2CC[C@](N)(C(=O)Nc3cc(C4CC4)n[nH]3)C2)ccc(F)c1C(F)(F)F` [Example 123], in that order: below 60 nM, above 100 nM, below 1900 nM and below 2000 nM.
On to `CC(C)(C#N)CNC(=O)[C@@]1(N)CCN(c2ccc(F)c(C(F)(F)F)c2Cn2cnc3c(N)ncnc32)C1` [Example 125], for which the IC50 in assay [1] was below 60 nM; in assay [2], below 50 nM; in assay [3] it was below 1900 nM; in assay [4], below 2000 nM.
The like results for `Nc1ncnc2c1ncn2Cc1c(N2CC[C@](N)(C(=O)N[C@@H]3C[C@H]3CO)C2)ccc(F)c1C(F)(F)F` [Example 127] were, in that order, below 60 nM, below 50 nM, below 1900 nM and below 2000 nM.
